We go through two compounds from PMC6399220, “Engineered XylE as a tool for mechanistic investigation and ligand discovery of the glucose transporters GLUTs” (Cell Discovery, 2019).

Type in all cases: binding
Test [1] concerns the target T1, XylE-WW (xylose:proton symporter XylE) (Escherichia coli, UniProt P0AGF4, G58W/L315W). The test is described as follows: MST.
The target of test [2] is T2, XylE (WT, xylose:proton symporter) (Escherichia coli, UniProt P0AGF4).
T2 sequence (P0AGF4 1-491): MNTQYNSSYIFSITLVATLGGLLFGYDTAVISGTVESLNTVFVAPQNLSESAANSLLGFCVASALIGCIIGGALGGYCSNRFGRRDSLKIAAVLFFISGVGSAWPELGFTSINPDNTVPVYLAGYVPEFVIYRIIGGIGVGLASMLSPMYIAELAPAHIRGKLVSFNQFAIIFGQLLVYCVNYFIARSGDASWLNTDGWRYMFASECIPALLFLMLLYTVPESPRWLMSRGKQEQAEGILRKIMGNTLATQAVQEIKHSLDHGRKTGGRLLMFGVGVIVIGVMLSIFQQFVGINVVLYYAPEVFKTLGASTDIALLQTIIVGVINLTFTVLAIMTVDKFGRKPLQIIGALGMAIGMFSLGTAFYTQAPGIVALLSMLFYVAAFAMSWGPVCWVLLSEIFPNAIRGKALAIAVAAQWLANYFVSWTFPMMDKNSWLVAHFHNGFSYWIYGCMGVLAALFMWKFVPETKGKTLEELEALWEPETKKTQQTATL
The test is described as follows: MST.

For test [3], the target named is T1, XylE-WW (xylose:proton symporter XylE). The test is described as follows: MST and ITC.
Test [4] deals with T2, XylE (WT, xylose:proton symporter). The test is described as follows: ITC (MST almost identical).

For orientation: Kd means the free concentration of one partner at which half of the binding sites on the other are occupied at equilibrium, for simple one-to-one binding. Low readings indicate a tighter complex, high ones a looser complex. Regarding `OC[C@H]1OC(O)[C@H](O)[C@@H](O)[C@@H]1O` (stereo partly drawn) [D-glucose], the Kd in test [1] amounted to 27.5 ± 0.5 µM; in test [2], 2080 ± 95.7 µM.
Regarding `OC1OC[C@@H](O)[C@H](O)[C@H]1O` (stereo partly drawn) [D-xylose], the values for the Kd in test [3] and in test [4] were 14.4 ± 0.2 µM and 843 ± 8 µM, respectively.
